Experimental data as given in PMC5218480 (PLoS ONE, 2017).

System: MV-4-11 cells
Assay: Gene expression microarray analysis (Affymetrix PrimeView) and GSEA
Type: cell-based, human
Set-up: RFU PODN (11730768_x_at) / Fold change /veh PODN (11730768_x_at) / RFU LINC00158 (11744669_a_at) / Fold change /veh LINC00158 (11744669_a_at) / RFU DUSP10 (11751237_a_at) / Fold change /veh DUSP10 (11751237_a_at) / RFU ID3 (11757404_x_at) / Fold change /veh ID3 (11757404_x_at) / RFU PLEKHG5 (11737974_s_at) / Fold change /veh PLEKHG5 (11737974_s_at) / RFU LRRC4B (11730491_at) / Fold change /veh LRRC4B (11730491_at) / RFU GIMAP4 (11747438_a_at) / Fold change /veh GIMAP4 (11747438_a_at) / RFU KRT8 (11758183_x_at) / Fold change /veh KRT8 (11758183_x_at) / RFU CNN1 (11734310_a_at) / Fold change /veh CNN1 (11734310_a_at) / RFU VPS37D (11726825_at) / Fold change /veh VPS37D (11726825_at) / RFU C10orf10 (11716522_x_at) / Fold change /veh C10orf10 (11716522_x_at) / RFU KIR2DL2 /// KIR2DL4 /// KIR2DL5A /// KIR2DL5B /// KIR2DS1 /// KIR2DS2 /// KIR2DS3 /// KIR2DS4 /// KIR3DL3 /// KIR3DL3 /// KIR3DS1 (11738374_at) / Fold change /veh KIR2DL2 /// KIR2DL4 /// KIR2DL5A /// KIR2DL5B /// KIR2DS1 /// KIR2DS2 /// KIR2DS3 /// KIR2DS4 /// KIR3DL3 /// KIR3DL3 /// KIR3DS1 (11738374_at) / RFU C1QL1 (11718748_at) / Fold change /veh C1QL1 (11718748_at) / RFU TMPRSS4 (11747572_a_at) / Fold change /veh TMPRSS4 (11747572_a_at) / RFU HAMP (11756126_x_at) / Fold change /veh HAMP (11756126_x_at) / RFU RNFT2 (11725882_a_at) / Fold change /veh RNFT2 (11725882_a_at) / RFU NR4A2 (11747474_a_at) / Fold change /veh NR4A2 (11747474_a_at) / RFU ABCC12 (11746883_a_at) / Fold change /veh ABCC12 (11746883_a_at) / RFU TMEM136 (11760407_x_at) / Fold change /veh TMEM136 (11760407_x_at) / RFU CLDN22 /// WWC2 (11732394_at) / Fold change /veh CLDN22 /// WWC2 (11732394_at) / RFU HLA-DPB1 (11760878_x_at) / Fold change /veh HLA-DPB1 (11760878_x_at) / RFU SPINT1 (11716480_a_at) / Fold change /veh SPINT1 (11716480_a_at) / RFU GAP43 (11754022_s_at) / Fold change /veh GAP43 (11754022_s_at) / RFU A4GNT (11735810_at) / Fold change /veh A4GNT (11735810_at) / RFU PRB3 (11715151_x_at) / Fold change /veh PRB3 (11715151_x_at) / RFU TUBB4B (11761932_at) / Fold change /veh TUBB4B (11761932_at) / RFU CAPN14 (11732068_a_at) / Fold change /veh CAPN14 (11732068_a_at) / RFU TMCC2 (11721928_a_at) / Fold change /veh TMCC2 (11721928_a_at) / RFU IRGQ (11745062_a_at) / Fold change /veh IRGQ (11745062_a_at) / RFU FAM174B (11720279_a_at) / Fold change /veh FAM174B (11720279_a_at) / RFU TMPRSS4 (11748680_a_at) / Fold change /veh TMPRSS4 (11748680_a_at) / RFU FAM212B (11763350_a_at) / Fold change /veh FAM212B (11763350_a_at) / RFU PLEKHG5 (11743358_a_at) / Fold change /veh PLEKHG5 (11743358_a_at) / RFU ZSCAN30 (11745921_a_at) / Fold change /veh ZSCAN30 (11745921_a_at) / RFU CMKLR1 (11741424_a_at) / Fold change /veh CMKLR1 (11741424_a_at) / RFU LOC101060620 /// MAPK8IP1 (11723275_at) / Fold change /veh LOC101060620 /// MAPK8IP1 (11723275_at) / RFU SPTSSB (11747773_x_at) / Fold change /veh SPTSSB (11747773_x_at) / RFU PRSS12 (11739890_at) / Fold change /veh PRSS12 (11739890_at) / RFU BIN1 (11741810_x_at) / Fold change /veh BIN1 (11741810_x_at) / RFU WNT11 (11732464_a_at) / Fold change /veh WNT11 (11732464_a_at) / RFU C10orf10 (11716521_a_at) / Fold change /veh C10orf10 (11716521_a_at) / RFU C5orf56 (11738089_at) / Fold change /veh C5orf56 (11738089_at) / RFU CYB561 (11721691_x_at) / Fold change /veh CYB561 (11721691_x_at) / RFU ANKRD19P (11752326_a_at) / Fold change /veh ANKRD19P (11752326_a_at) / RFU OR2T12 /// OR2T33 /// OR2T8 (11738714_s_at) / Fold change /veh OR2T12 /// OR2T33 /// OR2T8 (11738714_s_at) / RFU VCAN (11748164_a_at) / Fold change /veh VCAN (11748164_a_at) / RFU JSRP1 (11732532_at) / Fold change /veh JSRP1 (11732532_at) / RFU KRTAP10-11 (11738290_x_at) / Fold change /veh KRTAP10-11 (11738290_x_at) / RFU MYO3A (11730013_a_at) / Fold change /veh MYO3A (11730013_a_at) / RFU EBF3 (11725865_a_at) / Fold change /veh EBF3 (11725865_a_at) / RFU CAMK2N1 (11719241_x_at) / Fold change /veh CAMK2N1 (11719241_x_at) / RFU C5orf56 (11738088_a_at) / Fold change /veh C5orf56 (11738088_a_at) / RFU OLFML3 (11715873_a_at) / Fold change /veh OLFML3 (11715873_a_at) / RFU LOC100653217 /// NTM (11731650_a_at) / Fold change /veh LOC100653217 /// NTM (11731650_a_at) / RFU MAPK11 (11762145_a_at) / Fold change /veh MAPK11 (11762145_a_at) / RFU FIZ1 (11724087_x_at) / Fold change /veh FIZ1 (11724087_x_at) / RFU OASL (11726364_x_at) / Fold change /veh OASL (11726364_x_at) / RFU SOX15 (11748057_x_at) / Fold change /veh SOX15 (11748057_x_at) / RFU CD79A (11719716_a_at) / Fold change /veh CD79A (11719716_a_at) / RFU HIST1H1D (11736915_at) / Fold change /veh HIST1H1D (11736915_at) / RFU CASKIN2 (11723855_a_at) / Fold change /veh CASKIN2 (11723855_a_at) / RFU LOC730098 (11760151_x_at) / Fold change /veh LOC730098 (11760151_x_at) / RFU OR4N2 (11742367_at) / Fold change /veh OR4N2 (11742367_at) / RFU PRRT2 (11749266_a_at) / Fold change /veh PRRT2 (11749266_a_at) / RFU SNX32 (11753110_a_at) / Fold change /veh SNX32 (11753110_a_at) / RFU CDHR5 (11726645_a_at) / Fold change /veh CDHR5 (11726645_a_at) / RFU RCAN1 (11760418_a_at) / Fold change /veh RCAN1 (11760418_a_at) / RFU FAM167A (11723789_a_at) / Fold change /veh FAM167A (11723789_a_at) / RFU FAM26E (11764081_at) / Fold change /veh FAM26E (11764081_at) / RFU ISYNA1 (11749810_s_at) / Fold change /veh ISYNA1 (11749810_s_at) / RFU ACY1 (11761880_at) / Fold change /veh ACY1 (11761880_at) / RFU 11764098_at / Fold change /veh 11764098_at / RFU SAMD14 (11745864_x_at) / Fold change /veh SAMD14 (11745864_x_at) / RFU NPB (11741838_a_at) / Fold change /veh NPB (11741838_a_at) / RFU TMPRSS6 (11731388_a_at) / Fold change /veh TMPRSS6 (11731388_a_at) / RFU KRTAP10-2 (11738614_at) / Fold change /veh KRTAP10-2 (11738614_at) / RFU ARHGAP8 /// PRR5-ARHGAP8 (11727945_x_at) / Fold change /veh ARHGAP8 /// PRR5-ARHGAP8 (11727945_x_at) / RFU KRTAP5-7 /// NADSYN1 (11734609_at) / Fold change /veh KRTAP5-7 /// NADSYN1 (11734609_at) / RFU RASL12 (11751679_a_at) / Fold change /veh RASL12 (11751679_a_at) / RFU CDKN2B (11736163_a_at) / Fold change /veh CDKN2B (11736163_a_at) / RFU PRF1 (11729649_at) / Fold change /veh PRF1 (11729649_at) / RFU, ZNF638 /// ZNF638-IT1 / Fold change vs veh, ZNF638 /// ZNF638-IT1 / RFU, PANK3 / Fold change vs veh, PANK3 / RFU, SH3YL1 / Fold change vs veh, SH3YL1 / RFU, ZEB2 / Fold change vs veh, ZEB2 / RFU, NRIP1 / Fold change vs veh, NRIP1 / RFU, PTTG1IP / Fold change vs veh, PTTG1IP / RFU, CAPN2 / Fold change vs veh, CAPN2 / RFU, MED14 / Fold change vs veh, MED14 / RFU, SNORA58 / Fold change vs veh, SNORA58 / RFU, C1orf63 / Fold change vs veh, C1orf63 / RFU, LRRFIP1 / Fold change vs veh, LRRFIP1 / RFU, NDUFAF7 / Fold change vs veh, NDUFAF7 / RFU, SLC12A2 / Fold change vs veh, SLC12A2 / RFU, IBTK / Fold change vs veh, IBTK / RFU, ESF1 / Fold change vs veh, ESF1 / Fold change vs veh, TMEM50B / RFU, TAOK1 / Fold change vs veh, TAOK1 / RFU, ACBD3 / Fold change vs veh, ACBD3 / RFU, TMA16 / Fold change vs veh, TMA16 / RFU, RWDD3 / Fold change vs veh, RWDD3 / RFU, BCAT1 / Fold change vs veh, BCAT1 / RFU, EDEM3 / Fold change vs veh, EDEM3 / RFU, TMEM33 / Fold change vs veh, TMEM33 / RFU, WDR75 / Fold change vs veh, WDR75 / RFU, AHCTF1 / Fold change vs veh, AHCTF1 / RFU, TFRC / Fold change vs veh, TFRC / RFU, ZDHHC17 / Fold change vs veh, ZDHHC17 / RFU, NOM1 / Fold change vs veh, NOM1 / RFU, ARL8B / Fold change vs veh, ARL8B / RFU, ZBTB11 / Fold change vs veh, ZBTB11 / RFU, TAMM41 / Fold change vs veh, TAMM41 / RFU, KIAA1704 /// LOC100996395 / Fold change vs veh, KIAA1704 /// LOC100996395 / RFU, ING1 / Fold change vs veh, ING1 / RFU, TRMT61B / Fold change vs veh, TRMT61B / RFU, FUBP3 / Fold change vs veh, FUBP3 / RFU, TP53 / Fold change vs veh, TP53 / RFU, TNKS2 / Fold change vs veh, TNKS2 / RFU, ZFP14 / Fold change vs veh, ZFP14 / RFU, ACTR2 / Fold change vs veh, ACTR2 / RFU, PPP3R1 / Fold change vs veh, PPP3R1 / RFU, PIK3R1 / Fold change vs veh, PIK3R1 / RFU, HNRNPA1 / Fold change vs veh, HNRNPA1 / RFU, RNF170 / Fold change vs veh, RNF170 / RFU, ZNF28 / Fold change vs veh, ZNF28 / RFU, RNGTT / Fold change vs veh, RNGTT / RFU, OGT / Fold change vs veh, OGT / RFU, BRD1 / Fold change vs veh, BRD1 / RFU, MARS / Fold change vs veh, MARS / RFU, ZNF655 / Fold change vs veh, ZNF655 / RFU, FAHD1 / Fold change vs veh, FAHD1 / RFU, BDP1 / Fold change vs veh, BDP1 / RFU, LRRCC1 / Fold change vs veh, LRRCC1 / RFU, ARID1A / Fold change vs veh, ARID1A / RFU, ZNF146 / Fold change vs veh, ZNF146 / RFU, ZNF330 / Fold change vs veh, ZNF330 / RFU, GPN3 / Fold change vs veh, GPN3 / RFU, C9orf123 / Fold change vs veh, C9orf123 / RFU, N4BP2L2 / Fold change vs veh, N4BP2L2 / RFU, ARFIP1 / Fold change vs veh, ARFIP1 / RFU, FAM179B / Fold change vs veh, FAM179B / RFU, BCL10 / Fold change vs veh, BCL10 / RFU, UHRF1BP1L / Fold change vs veh, UHRF1BP1L / RFU, BET1 / Fold change vs veh, BET1 / RFU, CNOT2 / Fold change vs veh, CNOT2 / RFU, ZNF268 / Fold change vs veh, ZNF268 / Fold change vs veh, ZNF507 / RFU, DGCR2 / Fold change vs veh, DGCR2 / RFU, WDSUB1 / Fold change vs veh, WDSUB1 / Fold change vs veh, HSP90B1 /// MIR3652 / RFU, ADSS / Fold change vs veh, ADSS / RFU, GK / Fold change vs veh, GK / RFU, ZNF148 / Fold change vs veh, ZNF148 / RFU, TAF9 / Fold change vs veh, TAF9 / RFU, SLC1A5 / Fold change vs veh, SLC1A5 / RFU, SLMO2 / Fold change vs veh, SLMO2 / RFU, ABCC4 / Fold change vs veh, ABCC4 / RFU, LOC101060439 /// RAP1B / Fold change vs veh, LOC101060439 /// RAP1B / RFU, RFX7 / Fold change vs veh, RFX7 / RFU, GTPBP10 / Fold change vs veh, GTPBP10 / RFU, CNEP1R1 / Fold change vs veh, CNEP1R1 / RFU, BIVM-ERCC5 /// ERCC5 / Fold change vs veh, BIVM-ERCC5 /// ERCC5 / RFU, ILF3 / Fold change vs veh, ILF3 / RFU 11762660_at / Fold change /veh 11762660_at / RFU VCAN (11757783_s_at) / Fold change /veh VCAN (11757783_s_at) / RFU DDX43 (11728927_at) / Fold change /veh DDX43 (11728927_at) / RFU KRT8 (11758188_x_at) / Fold change /veh KRT8 (11758188_x_at) / RFU NKD1 (11759106_at) / Fold change /veh NKD1 (11759106_at) / RFU SRD5A1 (11742802_a_at) / Fold change /veh SRD5A1 (11742802_a_at) / RFU TPSAB1 /// TPSB2 (11721975_s_at) / Fold change /veh TPSAB1 /// TPSB2 (11721975_s_at) / RFU GSTM3 (11746129_a_at) / Fold change /veh GSTM3 (11746129_a_at) / RFU IL23R (11737362_x_at) / Fold change /veh IL23R (11737362_x_at) / RFU TMEM51 (11727254_a_at) / Fold change /veh TMEM51 (11727254_a_at) / RFU PIWIL2 (11732686_x_at) / Fold change /veh PIWIL2 (11732686_x_at) / RFU ORM1 (11744905_x_at) / Fold change /veh ORM1 (11744905_x_at) / RFU CCDC152 (11743942_at) / Fold change /veh CCDC152 (11743942_at) / RFU ECM1 (11717891_a_at) / Fold change /veh ECM1 (11717891_a_at) / RFU IL23R (11748794_a_at) / Fold change /veh IL23R (11748794_a_at) / RFU TNFAIP8L3 (11732012_x_at) / Fold change /veh TNFAIP8L3 (11732012_x_at) / RFU MBOAT4 (11741988_at) / Fold change /veh MBOAT4 (11741988_at) / RFU 11764193_at / Fold change /veh 11764193_at / RFU TMEM53 (11763286_at) / Fold change /veh TMEM53 (11763286_at) / RFU MAGEB2 (11727129_at) / Fold change /veh MAGEB2 (11727129_at) / RFU TMEM200A (11744735_a_at) / Fold change /veh TMEM200A (11744735_a_at) / RFU CCDC152 (11751479_a_at) / Fold change /veh CCDC152 (11751479_a_at) / RFU FAM211A (11726209_a_at) / Fold change /veh FAM211A (11726209_a_at) / RFU RGS16 (11746705_a_at) / Fold change /veh RGS16 (11746705_a_at) / RFU VCAN (11755009_s_at) / Fold change /veh VCAN (11755009_s_at) / RFU RHOB (11743442_s_at) / Fold change /veh RHOB (11743442_s_at) / RFU RGS16 (11720943_a_at) / Fold change /veh RGS16 (11720943_a_at) / RFU RGS16 (11720944_at) / Fold change /veh RGS16 (11720944_at) / RFU, VPS4B / Fold change vs veh, VPS4B / RFU, CREB1 / Fold change vs veh, CREB1 / RFU, DNAJC13 / Fold change vs veh, DNAJC13 / RFU, GNAQ / Fold change vs veh, GNAQ / RFU, CDK5R1 / Fold change vs veh, CDK5R1 / RFU, ZRANB3 / Fold change vs veh, ZRANB3 / RFU, CUL4A / Fold change vs veh, CUL4A / RFU, CCNY / Fold change vs veh, CCNY / RFU, UFL1 / Fold change vs veh, UFL1 / RFU, COG3 / Fold change vs veh, COG3 / RFU, DIAPH2 / Fold change vs veh, DIAPH2 / RFU, SKA2 / Fold change vs veh, SKA2 / RFU, AFF3 / Fold change vs veh, AFF3 / RFU, LMF1 / Fold change vs veh, LMF1 / RFU, IPO11 / Fold change vs veh, IPO11 / RFU, DFFB / Fold change vs veh, DFFB / RFU, FOXP1 / Fold change vs veh, FOXP1 / RFU, CARD8 / Fold change vs veh, CARD8 / RFU, STRN3 / Fold change vs veh, STRN3 / RFU, ADK / Fold change vs veh, ADK / RFU, RASSF2 / Fold change vs veh, RASSF2 / RFU, WIPF1 / Fold change vs veh, WIPF1 / RFU, LARP1B / Fold change vs veh, LARP1B / RFU, RASA1 / Fold change vs veh, RASA1 / RFU, RB1 / Fold change vs veh, RB1 / RFU, PPFIA1 / Fold change vs veh, PPFIA1 / RFU, MAT2A / Fold change vs veh, MAT2A / RFU, CCT5 / Fold change vs veh, CCT5 / RFU, WDR92 / Fold change vs veh, WDR92 / RFU, CUX1 / Fold change vs veh, CUX1 / RFU, TTC7A / Fold change vs veh, TTC7A / RFU, TMEM135 / Fold change vs veh, TMEM135 / RFU, DEPTOR / Fold change vs veh, DEPTOR / RFU, CPM / Fold change vs veh, CPM / RFU, DNAJB6 / Fold change vs veh, DNAJB6 / RFU, CACNA2D3 / Fold change vs veh, CACNA2D3 / RFU, DTX4 / Fold change vs veh, DTX4 / RFU, TFCP2 / Fold change vs veh, TFCP2 / RFU, GMCL1 /// GMCL1P1 / Fold change vs veh, GMCL1 /// GMCL1P1 / RFU, AEBP2 / Fold change vs veh, AEBP2 / RFU, SNHG1 /// SNORD22 /// SNORD25 /// SNORD26 /// SNORD27 /// SNORD28 /// SNORD29 /// SNORD31 / Fold change vs veh, SNHG1 /// SNORD22 /// SNORD25 /// SNORD26 /// SNORD27 /// SNORD28 /// SNORD29 /// SNORD31 / Fold change (Aza/veh), C12orf56 (ProbeSet 11735607_a_at) / Fold change (ACY-1035/veh), C12orf56 (ProbeSet 11735607_a_at) / Fold change (Aza/veh), FGFR1OP (ProbeSet 11751329_s_at) / Fold change (ACY-1035/veh), FGFR1OP (ProbeSet 11751329_s_at) / Fold change (Aza/veh), VPS36 (ProbeSet 11739960_a_at) / Fold change (ACY-1035/veh), VPS36 (ProbeSet 11739960_a_at) / RFU SYPL1 (11715823_x_at) / Fold change /veh SYPL1 (11715823_x_at) / RFU IGFBP7 (11715501_s_at) / Fold change /veh IGFBP7 (11715501_s_at) / RFU REEP3 (11722064_at) / Fold change /veh REEP3 (11722064_at) / RFU IGLL1 (11728026_x_at) / Fold change /veh IGLL1 (11728026_x_at): dose or concentration left out as unconfirmed
Conditions: ProbeSet 11716999_a_at; LIST D

Nc1ncn([C@@H]2O[C@H](CO)[C@@H](O)[C@H]2O)c(=O)n1 [azacitidine]
Fold change vs veh, RASA1: 0.72
